Data taken from patent publication US9416125B2, “Substituted cycloalkenopyrazoles as BUB1 inhibitors for the treatment of cancer” (BAYER PHARMA AKTIENGESELLSCHAFT, priority 2012, dated 2016).

Legend:
[1] = biological target: T1, catalytic domain of human Bub1 (amino acids 704-1085) (Homo sapiens, UniProt O43683); experiment: Bub1 kinase assay (TR-FRET); type: biochemical; conditions: 10 μM ATP, 1 μM peptide substrate, median, read-out: Biological Assay 1: Bub1 kinase assay median IC50
T1 construct: catalytic domain of human Bub1 (amino acids 704-1085); His6 (N); made in house; host or cells: Hi5 insect cells
Source text: Bub1-inhibitory activities of compounds described in the present invention were quantified using a time-resolved fluorescence energy transfer (TR-FRET) kinase assay which measures phosphorylation of the synthetic peptide Biotin-Ahx-VLLPKKSFAEPG (C-terminus in amide form), purchased from e.g. Biosyntan (Berlin, Germany) by the (recombinant) catalytic domain of human Bub1 (amino acids 704-1085), expressed in Hi5 insect cells with an N-terminal His6-tag and purified by affinity- (Ni-NTA) and size exclusion chromatography.
In a typical assay 11 different concentrations of each compound (0.1 nM, 0.33 nM, 1.1 nM, 3.8 nM, 13 nM, 44 nM, 0.15 μM, 0.51 μM, 1.7 μM, 5.9 μM and 20 μM) were tested in duplicate within the same microtiter plate. To this end, 100-fold concentrated compound solutions (in DMSO) were previously prepared by serial dilution (1:3.4) of 2 mM stocks in a clear low volume 384-well source microtiter plate (Greiner Bio-One, Frickenhausen, Germany), from which 50 nL of compounds were transferred into a black low volume test microtiter plate from the same supplier. Subsequently, 2 μL of Bub1 (the final concentration of Bub1 was adjusted depending on the activity of the enzyme lot in order to be within the linear dynamic range of the assay: typically ˜200 ng/mL were used) in aqueous assay buffer [50 mM Tris/HCl pH 7.5, 10 mM magnesium chloride (MgCl2), 200 mM potassium chloride (KCl), 1.0 mM dithiothreitol (DTT), 0.1 mM sodium ortho-vanadate, 1% (v/v) glycerol, 0.01% (w/v) bovine serum albumine (BSA), 0.005% (v/v) Trition X-100 (Sigma), 1× Complete EDTA-free protease inhibitor mixture (Roche)] were added to the compounds in the test plate and the mixture was incubated for 15 min at 22° C. to allow pre-equilibration of the putative enzyme-inhibitor complexes before the start of the kinase reaction, which was initiated by the addition of 3 μL 1.67-fold concentrated solution (in assay buffer) of adenosine-tri-phosphate (ATP, 10 μM final concentration) and peptide substrate (1 μM final concentration). The resulting mixture (5 μL final volume) was incubated at 22° C. during 60 min, and the reaction was stopped by the addition of 5 μL of an aqueous EDTA-solution (50 mM EDTA, in 100 mM HEPES pH 7.5 and 0.2% (w/v) bovine serum albumin) which also contained the TR-FRET detection reagents (0.2 μM streptavidin-XL665 [Cisbio Bioassays, Codolet, France] and 1 nM anti-phosho-Serine antibody [Merck Millipore, cat. #35-001] and 0.4 nM LANCE EU-W1024 labeled anti-mouse IgG antibody [Perkin-Elmer, product no. AD0077, alternatively a Terbium-cryptate-labeled anti-mouse IgG antibody from Cisbio Bioassays can be used]). The stopped reaction mixture was further incubated 1 h at 22° C. in order to allow the formation of complexes between peptides and detection reagents. Subsequently, the amount of product was evaluated by measurement of the resonance energy transfer from the Eu-chelate-antibody complex recognizing the Phosphoserine residue to the streptavidin-XL665 bound to the biotin moiety of the peptide. To this end, the fluorescence emissions at 620 nm and 665 nm after excitation at 330-350 nm were measured in GTR-FRET plate reader, e.g. a Rubystar or Pherastar (both from BMG Labtechnologies, Offenburg, Germany) or a Viewlux (Perkin-Elmer) and the ratio of the emissions (665 nm/622 nm) was taken as indicator for the amount of phosphorylated substrate. The data were normalised using two sets of (typically 32-) control wells for high- (=enzyme reaction without inhibitor=0%=Minimum inhibition) and low- (=all assay components without enzyme=100%=Maximum inhibition) Bub1 activity. IC50 values were calculated by fitting the normalized inhibition data to a 4-parameter logistic equation (Minimum, Maximum, IC50, Hill; Y=Max+(Min−Max)/(1+(X/IC50)Hill)).

[2] = system: HeLa cell line; experiment: Proliferation assay (crystal violet staining); type: cell-based; conditions: Homo sapiens, 96 h, 4 days incubation, range 0.001-10 μM, median, read-out: Biological Assay 2: Proliferation assay (HeLa cell line) median IC50
Method: Cultivated tumor cells (cells were ordered from ATCC, except HeLa-MaTu and HeLa-MaTu-ADR, which were ordered from EPO-GmbH, Berlin) were plated at a density of 1000 to 5000 cells/well, depending on the growth rate of the respective cell line, in a 96-well multititer plate in 200 μL of their respective growth medium supplemented 10% fetal calf serum. After 24 h, the cells of one plate (zero-point plate) were stained with crystal violet (see below), while the medium of the other plates was replaced by fresh culture medium (200 μL), to which the test substances were added in various concentrations (0 μM, as well as in the range of 0.001-10 μM; the final concentration of the solvent DMSO was 0.5%). The cells were incubated for 4 days in the presence of test substances. Cell proliferation was determined by staining the cells with crystal violet: the cells were fixed by adding 20 μL/measuring point of an 11% glutaric aldehyde solution for 15 min at rt. After three washing cycles of the fixed cells with water, the plates were dried at rt. The cells were stained by adding 100 μL/measuring point of a 0.1% crystal violet solution (pH 3.0). After three washing cycles of the stained cells with water, the plates were dried at rt. The dye was dissolved by adding 100 μL/measuring point of a 10% acetic acid solution. Absorbtion was determined by photometry at a wavelength of 595 nm. The change of cell number, in percent, was calculated by normalization of the measured values to the aborbtion values of the zero-point plate (=0%) and the absorbtion of the untreated (0 μm) cells (=100%). The IC50 values were determined by means of a 4 parameter fit.

T1 sequence (O43683 704-1085): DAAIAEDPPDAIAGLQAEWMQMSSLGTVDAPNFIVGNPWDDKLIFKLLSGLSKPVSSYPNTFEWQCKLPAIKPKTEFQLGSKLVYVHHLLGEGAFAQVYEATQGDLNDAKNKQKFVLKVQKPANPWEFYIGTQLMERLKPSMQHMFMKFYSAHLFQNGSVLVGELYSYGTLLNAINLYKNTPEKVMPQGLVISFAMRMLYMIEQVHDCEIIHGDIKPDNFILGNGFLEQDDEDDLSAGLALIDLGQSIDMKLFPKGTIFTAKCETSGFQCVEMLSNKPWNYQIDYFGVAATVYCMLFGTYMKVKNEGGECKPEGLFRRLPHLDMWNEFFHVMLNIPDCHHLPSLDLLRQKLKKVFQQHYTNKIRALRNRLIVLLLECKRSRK

Row | Structure (SMILES) | IC50 [1] [nM] | IC50 [2] [µM]
1 | CCOc1cc(F)c(Cn2nc(-c3ncc(OC)c(Nc4ccncc4)n3)c3c2CCC3)c(F)c1 [Example 2-1-1, 2-[1-(4-ethoxy-2,6-difluorobenzyl)-1,4,5,6-tetrahydrocyclopenta-[c]pyrazol-3-yl]-5-methoxy-N-(pyridin-4-yl)pyrimidin-4-amine] | 5 | 6
2 | COc1cnc(-c2nn(Cc3ccccc3F)c3c2CCCC3)nc1Nc1ccncc1 [Example 2-1-2, 2-[1-(2-fluoro-benzyl)-4,5,6,7-tetrahydro-1H-indazol-3-yl]-5-methoxy-N-(pyridin-4-yl)pyrimidin-4-amine] | 10 | ≥ 10
3 | COc1ccc(Cn2nc(-c3ncc(OC)c(Nc4ccncc4)n3)c3c2CCC3)cc1 [Example 2-1-3, 5-methoxy-2-[1-(4-methoxy-benzyl)-1,4,5,6-tetrahydrocyclopenta [c]pyrazol-3-yl]-N-(pyridin-4-yl)pyrimidin-4-amine] | 50 | ≥ 10
4 | COc1c(N)nc(-c2nn(Cc3ccccc3F)c3c2CCC3)nc1Nc1ccncc1 [Example 2-1-4, 2-[1-(2-fluoro-benzyl)-1,4,5,6-tetrahydrocyclopenta [c]pyrazol-3-yl]-5-methoxy-N-(pyridin-4-yl)pyrimidin-4,6-diamine] | 90 | ≥ 10
5 | Nc1nc(-c2nn(Cc3ccccc3F)c3c2CCC3)nc(Nc2ccncc2)c1N1CCOCC1 [Example 2-1-5, 2-[1-(2-fluoro-benzyl)-1,4,5,6-tetrahydrocyclopenta [c]pyrazol-3-yl]-5-(morpholin-4-yl)-N-(pyridin-4-yl)pyrimidin-4,6-diamine] | 100 | 
6 | COc1cnc(-c2nn(Cc3ccccc3F)c3c2CCC3)nc1Nc1ccncc1 [Example 2-1-6, 2-[1-(2-fluoro-benzyl)-1,4,5,6-tetrahydrocyclopenta [c]pyrazol-3-yl]-5-methoxy-N-(pyridin-4-yl)pyrimidin-4-amine] | 100 | ≥ 10
7 | COc1cnc(-c2nn(Cc3ccccc3F)c3c2CCC3)nc1Nc1ccncc1C#N [Example 2-1-7, 4-({2-[1-(2-fluoro-benzyl)-1,4,5,6-tetrahydrocyclopenta [c]pyrazol-3-yl]-5-methoxy-pyrimidin-4-yl}amino) nicotinonitrile] | 200 | ≥ 10
8 | Fc1ccccc1Cn1nc(-c2nc(Nc3ccncc3)c(N3CCOCC3)c(Nc3ccncc3)n2)c2c1CCC2 [Example 2-1-8, 2-[1-(2-fluoro-benzyl)-1,4,5,6-tetrahydrocyclopenta[c]pyrazol-3-yl]-5-(morpholin-4-yl)-N,N′-di(pyridin-4-yl)pyrimidin-4,6-diamine] | 3000 | 
9 | COCC(=O)Nc1nc(-c2nn(Cc3ccccc3F)c3c2CCC3)nc(Nc2ccncc2)c1OC [Example 2-1-10, N-{2-[1-(2-fluorobenzyl)-1,4,5,6-tetrahydrocyclopenta[c]pyrazol-3-yl]-5-methoxy-6-(pyridin-4-ylamino)pyrimidin-4-yl}-2-methoxyacetamide] | 300 | ≥ 10
10 | COc1c(NC(C)=O)nc(-c2nn(Cc3ccccc3F)c3c2CCC3)nc1Nc1ccncc1 [Example 2-1-11, N-{2-[1-(2-fluoro-benzyl)-1,4,5,6-tetrahydrocyclopenta [c]pyrazol-3-yl]-5-methoxy-6-(pyridin-4-ylamino)pyrimidin-4-yl}acetamide] | 120 | 
11 | NC(=O)c1cnccc1Nc1nc(-c2nn(Cc3ccccc3F)c3c2CCC3)ncc1O [Example 2-1-12, 4-({2-[1-(2-fluoro-benzyl)-1,4,5,6-tetrahydrocyclopenta [c]pyrazol-3-yl]-5-hydroxy-pyrimidin-4-yl}amino) nicotinamide] | 200 | ≥ 10
12 | Oc1cnc(-c2nn(Cc3ccccc3F)c3c2CCC3)nc1Nc1ccncc1 [Example 2-1-13, 2-[1-(2-fluoro-benzyl)-1,4,5,6-tetrahydrocyclopenta [c]pyrazol-3-yl]-4-(pyridin-4-ylamino) pyrimidin-5-ol] | 300 | ≥ 10
13 | CCOc1cc(F)c(Cn2nc(-c3ncc(O)c(Nc4ccncc4)n3)c3c2CCC3)c(F)c1 [Example 2-2-1, 2-[1-(4-ethoxy-2,6-difluorobenzyl)-1,4,5,6-tetrahydrocyclopenta-[c]pyrazol-3-yl]-4-(pyridin-4-ylamino)pyrimidin-5-ol] | 20 | ≥ 10
14 | N#Cc1cnccc1Nc1nc(-c2nn(Cc3ccccc3F)c3c2CCC3)ncc1O [Example 2-2-2, 4-({2-[1-(2-fluoro-benzyl)-1,4,5,6-tetrahydrocyclopenta [c]pyrazol-3-yl]-5-hydroxy-pyrimidin-4-yl}amino) nicotinonitrile] | 70 | 6
15 | CCOc1cc(F)c(Cn2nc(-c3ncc(OCCO[Si](C)(C)C(C)(C)C)c(Nc4ccncc4)n3)c3c2CCC3)c(F)c1 [Example 2-3-6, 5-(2-{[tert-butyl (dimethyl)silyl]oxy}ethoxy)-2-[1-(4-ethoxy-2,6-difluoro-benzyl)-1,4,5,6-tetrahydrocyclopenta [c]pyrazol-3-yl]-N-(pyridin-4-yl)pyrimidin-4-amine] | 100 | 
16 | CSCCOc1cnc(-c2nn(Cc3ccccc3F)c3c2CCC3)nc1Nc1ccncc1C(N)=O [Example 2-3-8, 4-({2-[1-(2-fluoro-benzyl)-1,4,5,6-tetrahydrocyclopenta [c]pyrazol-3-yl]-5-[2-(methyl-sulfanyl)ethoxy]pyrimidin-4-yl}amino) nicotinamide] | 20 | 
17 | CCOC(=O)c1cnccc1Nc1nc(-c2nn(Cc3ccccc3F)c3c2CCC3)ncc1Oc1ccncc1C(=O)OCC [Example 2-9-1, ethyl 4-[(4-{[3-(ethoxycarbonyl)pyridin-4-yl]amino}-2-[1-(2-fluorobenzyl)-1,4,5,6-tetrahydrocyclopenta[c]pyrazol-3-yl]pyrimidin-5-yl)oxy]nicotinate] | 500 | 
18 | COCC(=O)N(c1ccncc1)c1nc(-c2nn(Cc3ccccc3F)c3c2CCC3)nc(N)c1OC [Example 2-12-1, N-{6-amino-2-[1-(2-fluorobenzyl)-1,4,5,6-tetrahydrocyclopenta[c]-pyrazol-3-yl]-5-methoxypyrimidin-4-yl}-2-methoxy-N-(pyridin-4-yl)acetamide] | 6000 | 
